Literature values in patent US11766470B2, “Manufacture, formulation and dosing of apraglutide” (VectivBio AG, priority 2020, dated 2023).
Like-named read-outs stand apart in the source and are kept apart here.

How the values were obtained:
[1] = dosed once daily; cited from earlier work
[2] = cited from earlier work
[3] = cited from earlier work; remark: listed apart in the source

CC[C@H](C)[C@H](NC(=O)[C@H](Cc1ccccc1)NC(=O)[C@H](CC(=O)O)NC(=O)[C@H](CCCNC(=N)N)NC(=O)[C@H](C)NC(=O)[C@H](C)NC(=O)[C@H](CC(C)C)NC(=O)[C@H](CC(N)=O)NC(=O)[C@H](CC(=O)O)NC(=O)[C@H](CC(C)C)NC(=O)[C@@H](NC(=O)[C@@H](NC(=O)[C@H](CC(N)=O)NC(=O)[C@H](CCSC)NC(=O)[C@H](CCC(=O)O)NC(=O)[C@H](CC(=O)O)NC(=O)[C@H](CO)NC(=O)[C@H](Cc1ccccc1)NC(=O)[C@H](CO)NC(=O)CNC(=O)[C@H](CC(=O)O)NC(=O)CNC(=O)[C@@H](N)Cc1c[nH]cn1)[C@@H](C)O)[C@@H](C)CC)C(=O)N[C@@H](CC(N)=O)C(=O)N[C@@H](Cc1c[nH]c2ccccc12)C(=O)N[C@@H](CC(C)C)C(=O)N[C@H](C(=O)N[C@@H](CCC(N)=O)C(=O)N[C@H](C(=O)N[C@@H](CCCCN)C(=O)N[C@H](C(=O)N[C@H](C(=O)N[C@@H](CC(=O)O)C(=O)O)[C@@H](C)O)[C@@H](C)CC)[C@@H](C)O)[C@@H](C)CC [teduglutide]
Change from baseline increase in urinary input [1]: 139.3% | Change in baseline in energy absorption [1]: 792 kJ/day | Change in baseline in wet weight absorption [1]: 743 g/day

Glucagon-like peptide 2 [GLP-2, reference compound]
Half-life t½ [2]: 10 min

glepaglutide
Change from baseline increase in urinary output ([3]; 0.1 mg dose once daily): 111% | Change in baseline in energy absorption ([3]; 0.1 mg dose once daily): -377 kJ/day | Change in baseline in wet weight absorption ([3]; 0.1 mg dose once daily): -211 g/day | Change from baseline increase in urinary output ([3]; 1.0 mg dose once daily): 140% | Change in baseline in energy absorption ([3]; 1.0 mg dose once daily): 435 kJ/day | Change in baseline in wet weight absorption ([3]; 1.0 mg dose once daily): 650 g/day | Change from baseline increase in urinary output ([3]; 10 mg dose once daily): 132% | Change in baseline in energy absorption ([3]; 10 mg dose once daily): 588 kJ/day | Change in baseline in wet weight absorption ([3]; 10 mg dose once daily): 786 g/day
